Experimental data from patent publication US5770599A, “Quinazoline derivatives” (Zeneca Limited, priority 1995, dated 1998).
Like-named read-outs stand apart in the source and are kept apart here.

Legend:
[1] = system: EGF receptor tyrosine kinase; conditions: Fry et al., Science, 1994, 265, 1093; cited from earlier work
[2] = system: human vulval epidermoid carcinoma cell line A-431; assay: Test (c): in vivo inhibition of growth of A-431 xenografts in athymic nude mice; set-up: species or system human (xenograft in athymic nude mice); conditions: Mus musculus, A-431, 312 h; usually oral, once daily, 13 days; approximately
Experimental: (c) An in-vivo assay in a group of athymic nude mice (strain ONU:Alpk) which determines the ability of a test compound (usually administered orally as a ball-milled suspension in 0.5% polysorbate) to inhibit the growth of xenografts of the human vulval epidermoid carcinoma cell line A-431.
A-431 cells were maintained in culture in DMEM supplemented with 5% FCS and 2 mM glutamine. Freshly cultured cells were harvested by trypsinization and injected subcutaneously (10 million cells/0.1 ml/mouse) into both flanks of a number of donor nude mice. When sufficient tumour material was available (after approximately 9 to 14 days), fragments of tumour tissue were transplanted in the flanks of recipient nude mice (test day 0). Generally, on the seventh day after transplantation (test day 7) groups of 7 to 10 mice with similar-sized tumours were selected and dosing of the test compound was commenced. Once daily dosing of test compound was continued for a total of 13 days (test days 7 to 19 inclusive). In some studies the dosing of the test compound was continued beyond test day 19, for example to test day 26. In each case, on the following test day the animals were killed and the final tumour volume was calculated from measurements of the length and width of the tumours. Results were calculated as a percentage inhibition of tumour volume relative to untreated controls.

[3] = target: T1, EGF receptor tyrosine kinase (Homo sapiens, UniProt P00533); assay: Test (a): in vitro assay of inhibition of the enzyme EGF receptor tyrosine kinase (32P peptide phosphorylation); assay type: biochemical
T1 construct: Receptor tyrosine kinase was obtained in partially purified form from A-431 cells; endogenous in cells; host or cells: A-431 cells (human vulval carcinoma); solubilised membrane fraction
T1 sequence (P00533 25-1210): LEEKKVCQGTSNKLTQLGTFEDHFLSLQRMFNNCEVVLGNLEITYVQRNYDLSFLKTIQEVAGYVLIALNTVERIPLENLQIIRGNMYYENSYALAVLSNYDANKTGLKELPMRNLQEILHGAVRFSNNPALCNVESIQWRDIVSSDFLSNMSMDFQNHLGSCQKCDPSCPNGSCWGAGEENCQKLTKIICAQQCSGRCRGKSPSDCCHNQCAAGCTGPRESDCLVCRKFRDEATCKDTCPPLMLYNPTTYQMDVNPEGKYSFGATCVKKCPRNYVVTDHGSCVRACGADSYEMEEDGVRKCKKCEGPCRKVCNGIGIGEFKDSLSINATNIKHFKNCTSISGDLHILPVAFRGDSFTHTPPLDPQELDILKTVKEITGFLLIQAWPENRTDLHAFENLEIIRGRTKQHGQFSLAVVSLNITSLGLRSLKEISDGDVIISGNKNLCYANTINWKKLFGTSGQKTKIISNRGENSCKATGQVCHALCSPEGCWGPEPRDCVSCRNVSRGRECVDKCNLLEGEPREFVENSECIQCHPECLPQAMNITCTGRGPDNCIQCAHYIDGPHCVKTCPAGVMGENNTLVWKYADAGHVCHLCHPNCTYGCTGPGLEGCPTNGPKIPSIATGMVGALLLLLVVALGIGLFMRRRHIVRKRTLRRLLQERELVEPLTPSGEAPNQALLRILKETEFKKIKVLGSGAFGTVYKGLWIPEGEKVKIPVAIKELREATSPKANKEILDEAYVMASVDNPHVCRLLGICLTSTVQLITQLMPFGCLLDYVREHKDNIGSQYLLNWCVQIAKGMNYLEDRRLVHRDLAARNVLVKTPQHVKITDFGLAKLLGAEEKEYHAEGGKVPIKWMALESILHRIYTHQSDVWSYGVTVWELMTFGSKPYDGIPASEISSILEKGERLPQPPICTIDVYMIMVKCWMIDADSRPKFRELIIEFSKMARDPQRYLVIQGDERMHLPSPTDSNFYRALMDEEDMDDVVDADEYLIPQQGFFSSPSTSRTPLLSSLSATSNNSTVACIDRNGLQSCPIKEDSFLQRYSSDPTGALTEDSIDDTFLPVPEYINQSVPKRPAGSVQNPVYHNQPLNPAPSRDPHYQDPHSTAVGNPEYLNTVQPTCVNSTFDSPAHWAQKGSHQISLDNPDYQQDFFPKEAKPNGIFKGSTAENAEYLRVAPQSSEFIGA
Experimental: (a) An in vitro assay which-determines the ability of a test compound to inhibit the enzyme EGF receptor tyrosine kinase.
A-431 cells were grown to confluence using Dulbecco's modified Eagle's medium (DMEM) containing 5% fetal calf serum (FCS). […] The homogenate was centrifuged at 400 g for 10 minutes at 0°-4° C. The supernatant was centrifuged at 25,000 g for 30 minutes at 0°-4° C. The pelleted material was suspended in 30 mM Hepes buffer at pH 7.4 containing 5% glycerol, 4 mM benzamidine and 1% Triton X-100, stirred for 1 hour at 0°-4° C., and recentrifuged at 100,000 g for 1 hour at 0°-4° C. The supernatant, containing solubilised receptor tyrosine kinase, was stored in liquid nitrogen.
There was thus obtained the test enzyme solution.
Equal volumes of this solution and a solution of epidermal growth factor (EGF; 20 μg/ml) were mixed.
[γ-^32 P]ATP (3000 Ci/mM, 250 μCi) was diluted to a volume of 2 ml by the addition of a solution of ATP (100 μM) in distilled water. An equal volume of a 4 mg/ml solution of the peptide […]in a mixture of 40 mM Hepes buffer at pH 7.4, 0.1% Triton X-100 and 10% glycerol was added.
The test compound/EGF mixture solution (5 μl) was added to the test enzyme solution (10 μl) and the mixture was incubated at 0°-4° C. for 30 minutes. The ATP/peptide mixture (10 μl) was added and the mixture was incubated at 25° C. for 10 minutes. The phosphorylation reaction was terminated by the addition of 5% trichloroacetic acid (40 μl ) and bovine serum albumin (BSA; 1 mg/ml, 5 μl). The mixture was allowed to stand at 4° C. for 30 minutes and then centrifuged. An aliquot (40 μl) of the supernatant was placed onto a strip of Whatman p 81 phosphocellulose paper. The strip was washed in 75 mM phosphoric acid (4×10 ml) and blotted dry. Radioactivity present in the filter paper was measured using a liquid scintillation counter (Sequence A). The reaction sequence was repeated in the absence of the EGF (Sequence B) and again in the absence of the test compound (Sequence C).

[4] = system: human naso-pharyngeal cancer cell line KB; assay: cells; assay type: cell-based; conditions: 72 h, values stated as approximate, EGF 10 ng/ml, 3 days, read-out: Test (b) IC50
Experimental: (b) An in vitro assay which determines the ability of a test compound to inhibit the EGF-stimulated growth of the human naso-pharyngeal cancer cell line KB.
Cell growth was determined after incubation for 3 days by the extent of metabolism of MTT tetrazolium dye to furnish a bluish colour. Cell growth was then determined in the presence of EGF (10 ng/ml) or in the presence of EGF (10 ng/ml) and a test compound at a range of concentrations. An IC50 value could then be calculated.

[5] = system: another carcinoma which does not express EGF receptor tyrosine kinase; conditions: Toi et al., 1990; cited from earlier work
[6] = values stated as approximate, EGF receptor tyrosine kinase from A-431 cells

Row | Structure (SMILES) | IC50 [3, 6] | IC50 [4] | other results
1 | COc1cc2ncnc(Nc3cccc(Br)c3)c2cc1OC [4-(3'-bromoanilino)-6,7-dimethoxyquinazoline] |  |  | inhibition of EGF receptor tyrosine kinase [1]: highly potent inhibitor of EGF receptor tyrosine kinase
2 | COc1cc2ncnc(Nc3ccc(F)c(Cl)c3)c2cc1OCCCN1CCOCC1 [Example 1, 4-(3'-chloro-4'-fluoroanilino)-7-methoxy-6-(3-morpholinopropoxy)quinazoline] |  |  | ED50 [2]: ~12.5 mg/kg
3 | COc1cc2ncnc(Nc3ccc(F)c(Cl)c3)c2cc1OCCN1CCOCC1 [Example 3, 4-(3'-chloro-4'-fluoroanilino)-7-methoxy-6-(2-morpholinoethoxy)quinazoline] | 10 nM | 400 nM | 
4 | COc1cc2ncnc(Nc3ccc(F)c(Cl)c3)c2cc1OCCN1CCN(C)CC1 [Example 4, 4-(3'-chloro-4'-fluoroanilino)-7-methoxy-6-[2-(4-methylpiperazin-1-yl)ethoxy]quinazoline] |  | 100 nM | IC50 [3]: 10 nM
5 | COCCN(CCOC)CCOc1cc2c(Nc3ccc(F)c(Cl)c3)ncnc2cc1OC [Example 5, 4-(3'-chloro-4'-fluoroanilino)-7-methoxy-6-{2-[di-(2-methoxyethyl)amino]ethoxy}quinazoline] | 60 nM | 200 nM | 
6 | COc1cc2ncnc(Nc3ccc(F)c(Cl)c3)c2cc1OCCN(C)C [Example 6, 4-(3'-chloro-4'-fluoroanilino)-6-(2-dimethylaminoethoxy)-7-methoxyquinazoline] | 10 nM | 100 nM | 
7 | CCN(CC)CCOc1cc2c(Nc3ccc(F)c(Cl)c3)ncnc2cc1OC [Example 7, 4-(3'-chloro-4'-fluoroanilino)-6-(2-diethylaminoethoxy)-7-methoxyquinazoline] | 90 nM | 300 nM | 
8 | COc1cc2ncnc(Nc3ccc(F)cc3F)c2cc1OCCCN(C)C [Example 8, 4-(2',4'-difluoroanilino)-6-(3-dimethylaminopropoxy)-7-methoxyquinazoline] | 480 nM | 900 nM | 
9 | COc1cc2ncnc(Nc3ccc(F)c(Cl)c3)c2cc1OCC(O)CN1CCOCC1 (stereo not shown) [Example 9, 4-(3'-chloro-4'-fluoroanilino)-6-(2-hydroxy-3-morpholinopropoxy)-7-methoxyquinazoline] | 10 nM | 100 nM | 
10 | COc1cc2ncnc(Nc3ccc(F)cc3F)c2cc1OCCCN1CCOCC1 [Example 14, 4-(2',4'-difluoroanilino)-7-methoxy-6-(3-morpholinopropoxy)quinazoline] | 670 nM | 300 nM | 
11 | COc1cc2ncnc(Nc3ccc(F)c(F)c3)c2cc1OCCCN(C)C [Example 18, 4-(3',4'-difluoroanilino)-6-(3-dimethylaminopropoxy)-7-methoxyquinazoline] | 270 nM | 390 nM | 
12 | COc1cc2ncnc(Nc3ccc(F)c(F)c3)c2cc1OCCCN1CCOCC1 [Example 19, 4-(3',4'-difluoroanilino)-7-methoxy-6-(3-morpholinopropoxy)quinazoline] | 520 nM | 450 nM | 
13 | CCN(CC)CCCOc1cc2c(Nc3ccc(F)c(F)c3)ncnc2cc1OC [Example 20, 6-(3-diethylaminopropoxy)-4-(3',4'-difluoroanilino)-7-methoxyquinazoline] | 670 nM | 550 nM | 
14 | O=CN/C=C/c1cc(O)ccc1O [erbstatin] |  |  | growth of another carcinoma not expressing EGF receptor tyrosine kinase [5]: without effect on the growth
